According to patent publication US20260022142A1, “MACROCYCLIC IMMUNOMODULATORS” (Bristol-Myers Squibb Company, priority 2022, published 2026):
Bridge positions count the residues as written; N and C are the ends. Square brackets hold non-standard residues; d marks the D form. Peptide text beside a SMILES is read from it. * marks the point of attachment. ξ: configuration not given here. Phe(4-COOH) = N[C@@H](Cc1ccc(C(=O)O)cc1)C(=O)O; Bip = N[C@@H](Cc1ccc(-c2ccccc2)cc1)C(=O)O; Ala(2-furyl) = N[C@@H](Cc1ccco1)C(=O)O; Phe(3-Me) = Cc1cccc(C[C@H](N)C(=O)O)c1; Val(3-OH) = CC(C)(O)[C@H](N)C(=O)O; hhPhe = N[C@@H](CCCc1ccccc1)C(=O)O; hArg = N=C(N)NCCCC[C@H](N)C(=O)O; Abu(4-CN) = N#CCC[C@H](N)C(=O)O; Cha = N[C@@H](CC1CCCCC1)C(=O)O; Cit = NC(=O)NCCC[C@H](N)C(=O)O; Thr(3ξ) = CC(O)[C@H](N)C(=O)O; dDab = NCC[C@@H](N)C(=O)O; hSer = N[C@@H](CCO)C(=O)O; Carboxymethyl = O=C(O)C*; Orn = NCCC[C@H](N)C(=O)O; Aun = NCCCCCCCCCCC(=O)O; Dab = NCC[C@H](N)C(=O)O

Biological target: T1, PD-1/PD-L1 interaction (PE-labeled human PD-L1-Ig binding to Jurkat cell line over-expressing human PD-1) (Homo sapiens, UniProt Q15116)
T1 construct: expressed in transfected cells; host or cells: Jurkat
Experiment: Jurkat-PD-1 Cell Binding High-Content Screening Assay (CBA)
Type: cell-based
Conditions: Jurkat cell line over-expressing human PD-1; PE-labeled PD-L1-Ig 20 nM final; read-out: Jurkat hPD1-PDL1 IC50
Procedure, shortened: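 Human PD-L1-Ig carrying a covalent PE label on its Ig tag serves as the probe, applied at 20 nM final to compound-treated (2 h, 37° C) Jurkat-hPD-1 cells in medium with 10% fetal calf serum. After one hour, fixation and nuclear staining precede high-content image analysis.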

T1 sequence (Q15116 25-288): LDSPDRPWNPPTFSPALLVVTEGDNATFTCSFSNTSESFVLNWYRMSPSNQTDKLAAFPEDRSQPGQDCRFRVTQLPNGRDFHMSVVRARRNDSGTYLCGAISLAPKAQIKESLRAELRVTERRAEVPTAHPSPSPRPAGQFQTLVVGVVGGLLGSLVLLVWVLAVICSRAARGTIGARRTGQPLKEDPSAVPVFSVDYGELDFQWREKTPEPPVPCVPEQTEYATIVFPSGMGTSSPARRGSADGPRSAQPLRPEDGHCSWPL

SMILES	IC50
CC(=O)NCCCC[C@@H]1NC(=O)[C@H](C(C)C)NC(=O)[C@H](CC2CCCCC2)NC(=O)[C@H](CCN)NC(=O)[C@@H](CC(C)C)NC(=O)[C@H](CCCN)NC(=O)[C@H](Cc2ccc(O)cc2)NC(=O)[C@H](Cc2ccc(-c3ccccc3)cc2)NC(=O)[C@H](C(C)C)NC(=O)[C@H](Cc2c[nH]c3ccccc23)NC(=O)[C@H](CC(=O)O)NC(=O)[C@H](Cc2ccc(C(=O)O)cc2)NC(=O)[C@H](Cc2ccc(OCC(=O)O)cc2)NC(=O)CSC[C@@H](C(=O)N[C@H](CCN)C(=O)NCCCCCCCCCCC(=O)O)NC1=O [Compound 3404] ({CH2CO}-Y(Carboxymethyl)[Phe(4-COOH)]DWV[Bip]Y[Orn][dL][Dab][Cha]VK(Ac)C[dDab][Aun]-OH; thioether N-14)	15 nM
CC(C)C[C@H]1NC(=O)[C@H](CCCN)NC(=O)[C@H](Cc2ccc(O)cc2)NC(=O)[C@H](Cc2ccc(-c3ccccc3)cc2)NC(=O)[C@H](C(C)C)NC(=O)[C@H](Cc2c[nH]c3ccccc23)NC(=O)[C@H](CC(=O)O)NC(=O)[C@H](Cc2ccc(OCC(=O)O)cc2)NC(=O)[C@H](CCCNC(=N)N)NC(=O)CSC[C@@H](C(=O)N[C@@H](CCN)C(=O)NCCCCCCCCCCC(=O)O)NC(=O)[C@H](CCC(N)=O)NC(=O)[C@H](C(C)C)NC(=O)[C@H](CC2CCCCC2)NC(=O)[C@H](CCN)NC1=O [Compound 3405] ({CH2CO}-RY(Carboxymethyl)DWV[Bip]Y[Orn][dL][Dab][Cha]VQC[Dab][Aun]-OH; thioether N-14)	8.2 nM
CC(C)C[C@H]1NC(=O)[C@H](CCCN)NC(=O)[C@H](Cc2ccc(O)cc2)NC(=O)[C@H](Cc2ccc(-c3ccccc3)cc2)NC(=O)[C@H](C(C)C)NC(=O)[C@H](Cc2c[nH]c3ccccc23)NC(=O)[C@H](CC(=O)O)NC(=O)[C@H](Cc2ccc(OCC(=O)O)cc2)NC(=O)[C@H](CCCCNC(=N)N)NC(=O)CSC[C@@H](C(=O)N[C@@H](CCN)C(=O)NCCCCCCCCCCC(=O)O)NC(=O)[C@H](CCCNC(N)=O)NC(=O)[C@H](C(C)C)NC(=O)[C@H](CC2CCCCC2)NC(=O)[C@H](CCN)NC1=O [Compound 3407] ({CH2CO}-[hArg]Y(Carboxymethyl)DWV[Bip]Y[Orn][dL][Dab][Cha]V[Cit]C[Dab][Aun]-OH; thioether N-14)	21.2 nM
CC(C)C[C@H]1NC(=O)[C@H](CCCN)NC(=O)[C@H](Cc2ccc(O)cc2)NC(=O)[C@H](Cc2ccc(-c3ccccc3)cc2)NC(=O)[C@H](C(C)C)NC(=O)[C@H](Cc2c[nH]c3ccccc23)NC(=O)[C@H](CC(=O)O)NC(=O)[C@H](Cc2ccc(OCC(=O)O)cc2)NC(=O)[C@H](CCCCNC(=N)N)NC(=O)CSC[C@@H](C(=O)N[C@@H](CCN)C(=O)NCCCCCCCCCCC(=O)O)NC(=O)[C@H](CCO)NC(=O)[C@H](C(C)C)NC(=O)[C@H](CC2CCCCC2)NC(=O)[C@H](CCN)NC1=O [Compound 3408] ({CH2CO}-[hArg]Y(Carboxymethyl)DWV[Bip]Y[Orn][dL][Dab][Cha]V[hSer]C[Dab][Aun]-OH; thioether N-14)	20.9 nM
CC(=O)NCCCC[C@@H]1NC(=O)[C@H](C(C)C)NC(=O)[C@H](CC2CCCCC2)NC(=O)[C@H](CCN)NC(=O)[C@@H](CC(C)C)NC(=O)[C@H](CCCN)NC(=O)[C@H](Cc2ccc(O)cc2)NC(=O)[C@H](Cc2ccc(-c3ccccc3)cc2)NC(=O)[C@H](C(C)C)NC(=O)[C@H](Cc2c[nH]c3ccccc23)NC(=O)[C@H](CC(=O)O)NC(=O)[C@H](Cc2ccc(OCC(=O)O)cc2)NC(=O)[C@H](CCCCNC(=N)N)NC(=O)CSC[C@@H](C(=O)N[C@@H](CCN)C(=O)NCCCCCCCCCCC(=O)O)NC1=O [Compound 3409] ({CH2CO}-[hArg]Y(Carboxymethyl)DWV[Bip]Y[Orn][dL][Dab][Cha]VK(Ac)C[Dab][Aun]-OH; thioether N-14)	15.6 nM
CC(C)C[C@H]1NC(=O)[C@H](CCCN)NC(=O)[C@H](Cc2ccc(O)cc2)NC(=O)[C@H](Cc2ccc(-c3ccccc3)cc2)NC(=O)[C@H](C(C)C)NC(=O)[C@H](Cc2c[nH]c3ccccc23)NC(=O)[C@H](CC(=O)O)NC(=O)[C@H](Cc2ccc(OCC(=O)O)cc2)NC(=O)[C@H](CCCCNC(=N)N)NC(=O)CSC[C@@H](C(=O)N[C@@H](CCN)C(=O)NCCCCCCCCCCC(=O)O)NC(=O)[C@H](C(C)O)NC(=O)[C@H](C(C)C)NC(=O)[C@H](CC2CCCCC2)NC(=O)[C@H](CCN)NC1=O (stereo partly drawn) [Compound 3410] ({CH2CO}-[hArg]Y(Carboxymethyl)DWV[Bip]Y[Orn][dL][Dab][Cha]V[Thr(3ξ)]C[Dab][Aun]-OH; thioether N-14)	20.2 nM
CC(C)C[C@H]1NC(=O)[C@H](CCCN)NC(=O)[C@H](Cc2ccc(O)cc2)NC(=O)[C@H](Cc2ccc(-c3ccccc3)cc2)NC(=O)[C@H](C(C)C)NC(=O)[C@H](Cc2c[nH]c3ccccc23)NC(=O)[C@H](CC(=O)O)NC(=O)[C@H](Cc2ccc(OCC(=O)O)cc2)NC(=O)[C@H](CCCNC(=N)N)NC(=O)CSC[C@@H](C(=O)N[C@@H](CCN)C(=O)NCCCCCCCCCCC(=O)O)NC(=O)[C@H](CCCNC(N)=O)NC(=O)[C@H](C(C)C)NC(=O)[C@H](CC2CCCCC2)NC(=O)[C@H](CCN)NC1=O [Compound 3411] ({CH2CO}-RY(Carboxymethyl)DWV[Bip]Y[Orn][dL][Dab][Cha]V[Cit]C[Dab][Aun]-OH; thioether N-14)	11 nM
CC(C)C[C@H]1NC(=O)[C@H](CCCN)NC(=O)[C@H](Cc2ccc(O)cc2)NC(=O)[C@H](Cc2ccc(-c3ccccc3)cc2)NC(=O)[C@H](C(C)C)NC(=O)[C@H](Cc2c[nH]c3ccccc23)NC(=O)[C@H](CC(=O)O)NC(=O)[C@H](Cc2ccc(OCC(=O)O)cc2)NC(=O)[C@H](CCCNC(=N)N)NC(=O)CSC[C@@H](C(=O)N[C@@H](CCN)C(=O)NCCCCCCCCCCC(=O)O)NC(=O)[C@H](CCO)NC(=O)[C@H](C(C)C)NC(=O)[C@H](CC2CCCCC2)NC(=O)[C@H](CCN)NC1=O [Compound 3412] ({CH2CO}-RY(Carboxymethyl)DWV[Bip]Y[Orn][dL][Dab][Cha]V[hSer]C[Dab][Aun]-OH; thioether N-14)	16.4 nM

The remaining lines, values ahead:

IC50	SMILES
33.3 nM	CC(C)C[C@H]1NC(=O)[C@H](CCCN)NC(=O)[C@H](Cc2ccc(O)cc2)NC(=O)[C@H](Cc2ccc(-c3ccccc3)cc2)NC(=O)[C@H](C(C)C)NC(=O)[C@H](Cc2c[nH]c3ccccc23)NC(=O)[C@H](CC(=O)O)NC(=O)[C@H](Cc2ccc(OCC(=O)O)cc2)NC(=O)[C@H](CCCNC(=N)N)NC(=O)CSC[C@@H](C(=O)N[C@@H](CCN)C(=O)NCCCCCCCCCCC(=O)O)NC(=O)[C@H](C(C)O)NC(=O)[C@H](C(C)C)NC(=O)[C@H](CC2CCCCC2)NC(=O)[C@H](CCN)NC1=O (stereo partly drawn) [Compound 3413] ({CH2CO}-RY(Carboxymethyl)DWV[Bip]Y[Orn][dL][Dab][Cha]V[Thr(3ξ)]C[Dab][Aun]-OH; thioether N-14)
73.7 nM	CC(C)C[C@H]1NC(=O)[C@H](CCCN)NC(=O)[C@H](Cc2ccc(O)cc2)NC(=O)[C@H](Cc2ccc(-c3ccccc3)cc2)NC(=O)[C@H](C(C)C)NC(=O)[C@H](Cc2c[nH]c3ccccc23)NC(=O)[C@H](CC(=O)O)NC(=O)[C@H](Cc2ccc(OCC(=O)O)cc2)NC(=O)[C@H](C(C)(C)O)NC(=O)CSC[C@@H](C(=O)N[C@@H](CCN)C(=O)NCCCCCCCCCCC(=O)O)NC(=O)[C@H](C(C)O)NC(=O)[C@H](C(C)C)NC(=O)[C@H](CC2CCCCC2)NC(=O)[C@H](CCN)NC1=O (stereo partly drawn) [Compound 3414] ({CH2CO}-[Val(3-OH)]Y(Carboxymethyl)DWV[Bip]Y[Orn][dL][Dab][Cha]V[Thr(3ξ)]C[Dab][Aun]-OH; thioether N-14)
73.6 nM	CC(C)C[C@H]1NC(=O)[C@H](CCCN)NC(=O)[C@H](Cc2ccc(O)cc2)NC(=O)[C@H](Cc2ccc(-c3ccccc3)cc2)NC(=O)[C@H](C(C)C)NC(=O)[C@H](Cc2c[nH]c3ccccc23)NC(=O)[C@H](CC(=O)O)NC(=O)[C@H](Cc2ccc(OCC(=O)O)cc2)NC(=O)[C@H](CCCNC(=N)N)NC(=O)CSC[C@@H](C(=O)N[C@@H](CCN)C(=O)NCCCCCCCCCCC(=O)O)NC(=O)[C@H](Cc2ccco2)NC(=O)[C@H](C(C)C)NC(=O)[C@H](CC2CCCCC2)NC(=O)[C@H](CCN)NC1=O [Compound 3415] ({CH2CO}-RY(Carboxymethyl)DWV[Bip]Y[Orn][dL][Dab][Cha]V[Ala(2-furyl)]C[Dab][Aun]-OH; thioether N-14)
36.2 nM	CC(C)C[C@H]1NC(=O)[C@H](CCCN)NC(=O)[C@H](Cc2ccc(O)cc2)NC(=O)[C@H](Cc2ccc(-c3ccccc3)cc2)NC(=O)[C@H](C(C)C)NC(=O)[C@H](Cc2c[nH]c3ccccc23)NC(=O)[C@H](CC(=O)O)NC(=O)[C@H](Cc2ccc(OCC(=O)O)cc2)NC(=O)[C@H](CCCNC(=N)N)NC(=O)CSC[C@@H](C(=O)N[C@@H](CCN)C(=O)NCCCCCCCCCCC(=O)O)NC(=O)[C@H](CCC#N)NC(=O)[C@H](C(C)C)NC(=O)[C@H](CC2CCCCC2)NC(=O)[C@H](CCN)NC1=O [Compound 3418] ({CH2CO}-RY(Carboxymethyl)DWV[Bip]Y[Orn][dL][Dab][Cha]V[Abu(4-CN)]C[Dab][Aun]-OH; thioether N-14)
60.9 nM	Cc1cccc(C[C@@H]2NC(=O)[C@H](CC(=O)O)NC(=O)[C@H](Cc3ccc(OCC(=O)O)cc3)NC(=O)[C@H](CCCNC(=N)N)NC(=O)CSC[C@@H](C(=O)N[C@@H](CCN)C(=O)NCCCCCCCCCCC(=O)O)NC(=O)[C@H](C(C)O)NC(=O)[C@H](C(C)C)NC(=O)[C@H](CC3CCCCC3)NC(=O)[C@H](CCN)NC(=O)[C@@H](CC(C)C)NC(=O)[C@H](CCCN)NC(=O)[C@H](Cc3ccc(O)cc3)NC(=O)[C@H](Cc3ccc(-c4ccccc4)cc3)NC(=O)[C@H](CCCc3ccccc3)NC2=O)c1 (stereo partly drawn) [Compound 3420] ({CH2CO}-RY(Carboxymethyl)D[Phe(3-Me)][hhPhe][Bip]Y[Orn][dL][Dab][Cha]V[Thr(3ξ)]C[Dab][Aun]-OH; thioether N-14)
